For orientation: inhibition means the share of the control response that was lost under treatment.

Assay [1] relates to Tyrosine-protein kinase ABL1 (Homo sapiens), P00519 [F317L]. Description: Inhibition of human non-phosphorylated ABL1 F317L mutant (S229 to K512 residues) expressed in mammalian expression system at 10 uM by Kinomescan method relative to control.
Assay [2] concerns the target Epithelial discoidin domain-containing receptor 1 (Homo sapiens) (UniProt Q08345). Description: Inhibition of wild-type human partial length DDR1 (R565 to V876 residues) expressed in bacterial expression system at 10 uM by Kinomescan method relative to control.
In assay [3] the target is Serine/threonine-protein kinase MRCK gamma (Homo sapiens) (UniProt Q6DT37). Description: Inhibition of wild-type human partial length DMPK2 (S46 to S408 residues) expressed in bacterial expression system at 10 uM by Kinomescan method relative to control.
The test system of assay [4] is Epidermal growth factor receptor (Homo sapiens), P00533 [L861Q]. Description: Inhibition of human partial length EGFR L861Q mutant (R669 to V1011 residues) expressed in bacterial expression system at 10 uM by Kinomescan method relative to control.
Sequence of Epidermal growth factor receptor (Homo sapiens), P00533 [L861Q] (P00533 whole entry L861Q, the tested form may be a part): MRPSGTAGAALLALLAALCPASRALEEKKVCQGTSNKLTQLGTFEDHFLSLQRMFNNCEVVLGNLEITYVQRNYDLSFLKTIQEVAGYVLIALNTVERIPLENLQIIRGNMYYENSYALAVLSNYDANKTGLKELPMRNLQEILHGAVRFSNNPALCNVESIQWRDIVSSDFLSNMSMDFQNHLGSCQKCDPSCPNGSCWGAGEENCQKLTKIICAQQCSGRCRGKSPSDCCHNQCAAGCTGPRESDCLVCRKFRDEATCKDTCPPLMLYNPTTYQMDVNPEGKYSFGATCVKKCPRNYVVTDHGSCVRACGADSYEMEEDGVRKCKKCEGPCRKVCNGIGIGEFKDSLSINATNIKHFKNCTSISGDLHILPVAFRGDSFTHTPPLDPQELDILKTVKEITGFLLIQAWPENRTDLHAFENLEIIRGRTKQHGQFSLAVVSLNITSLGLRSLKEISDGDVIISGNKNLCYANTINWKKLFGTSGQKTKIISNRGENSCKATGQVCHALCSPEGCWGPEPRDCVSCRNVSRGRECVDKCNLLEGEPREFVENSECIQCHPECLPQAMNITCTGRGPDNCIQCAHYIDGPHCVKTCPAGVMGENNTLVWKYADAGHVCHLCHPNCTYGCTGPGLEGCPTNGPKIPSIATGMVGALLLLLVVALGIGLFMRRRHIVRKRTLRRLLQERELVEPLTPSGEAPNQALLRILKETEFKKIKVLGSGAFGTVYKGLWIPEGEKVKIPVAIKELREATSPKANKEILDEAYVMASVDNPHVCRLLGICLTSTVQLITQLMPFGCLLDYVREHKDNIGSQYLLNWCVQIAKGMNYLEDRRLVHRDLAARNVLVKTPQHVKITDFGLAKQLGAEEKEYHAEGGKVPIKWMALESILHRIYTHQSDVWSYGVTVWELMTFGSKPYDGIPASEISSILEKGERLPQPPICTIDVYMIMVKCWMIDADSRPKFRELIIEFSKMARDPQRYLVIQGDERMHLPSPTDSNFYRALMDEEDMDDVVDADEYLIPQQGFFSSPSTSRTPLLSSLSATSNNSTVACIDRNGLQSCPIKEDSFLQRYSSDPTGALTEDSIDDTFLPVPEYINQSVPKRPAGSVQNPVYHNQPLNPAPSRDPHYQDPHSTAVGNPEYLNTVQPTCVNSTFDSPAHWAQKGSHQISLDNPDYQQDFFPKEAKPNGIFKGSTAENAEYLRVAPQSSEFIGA
Assay [5] has as its target Mitogen-activated protein kinase 3 (Homo sapiens) (UniProt P27361). Description: Inhibition of wild-type human full length ERK1 (M1 to P379 residues) expressed in bacterial expression system at 10 uM by Kinomescan method relative to control.
For assay [6], the target named is Insulin receptor (Homo sapiens) (UniProt P06213). Description: Inhibition of wild-type human partial length INSR (P997 to E1318 residues) expressed in mammalian expression system at 10 uM by Kinomescan method relative to control.
The target in assay [7] is Dual specificity mitogen-activated protein kinase kinase 5 (Homo sapiens) (UniProt Q13163). Description: Inhibition of wild-type human partial length MEK5 (L98 to P448 residues) expressed in mammalian expression system at 10 uM by Kinomescan method relative to control.
Assay [8] has as its target Mitogen-activated protein kinase 11 (Homo sapiens) (UniProt Q15759). Description: Inhibition of wild-type human full length p38-beta (M1 to Q364 residues) expressed in bacterial expression system at 10 uM by Kinomescan method relative to control.
Assay [9] concerns the target Serine/threonine-protein kinase PAK 4 (Homo sapiens) (UniProt O96013). Description: Inhibition of wild-type human partial length PAK4 (Q144 to R438 residues) expressed in bacterial expression system at 10 uM by Kinomescan method relative to control.
Assay [10] addresses Phosphatidylinositol 3-kinase C2 domain-containing subunit gamma (Homo sapiens) (UniProt O75747). Description: Inhibition of wild-type human partial length PIK3C2G (M1 to I1446 residues) expressed in mammalian expression system at 10 uM by Kinomescan method relative to control.
Assay [11] deals with Serine/threonine-protein kinase PknB (Mycobacterium tuberculosis) (UniProt P9WI81). Description: Inhibition of wild-type Mycobacterium tuberculosis partial length PKNB (M1 to G279 residues) expressed in mammalian expression system at 10 uM by Kinomescan method relative to control.
For assay [12], the target named is Proto-oncogene tyrosine-protein kinase receptor Ret (Homo sapiens) (UniProt P07949). Description: Inhibition of wild-type human partial length RET (E713 to D1014 residues) expressed in bacterial expression system at 10 uM by Kinomescan method relative to control.
Assay [13] relates to Proto-oncogene tyrosine-protein kinase receptor Ret (Homo sapiens), P07949 [V804M]. Description: Inhibition of human partial length RET V804M mutant (E713 to D1014 residues) expressed in bacterial expression system at 10 uM by Kinomescan method relative to control.
The test system of assay [14] is Tyrosine-protein kinase ABL1 (Homo sapiens), P00519 [F317I]. Description: Inhibition of human non-phosphorylated ABL1 F317I mutant (S229 to K512 residues) expressed in mammalian expression system at 1 uM by Kinomescan method relative to control.
Sequence of Tyrosine-protein kinase ABL1 (Homo sapiens), P00519 [F317I] (P00519 whole entry F317I, the tested form may be a part): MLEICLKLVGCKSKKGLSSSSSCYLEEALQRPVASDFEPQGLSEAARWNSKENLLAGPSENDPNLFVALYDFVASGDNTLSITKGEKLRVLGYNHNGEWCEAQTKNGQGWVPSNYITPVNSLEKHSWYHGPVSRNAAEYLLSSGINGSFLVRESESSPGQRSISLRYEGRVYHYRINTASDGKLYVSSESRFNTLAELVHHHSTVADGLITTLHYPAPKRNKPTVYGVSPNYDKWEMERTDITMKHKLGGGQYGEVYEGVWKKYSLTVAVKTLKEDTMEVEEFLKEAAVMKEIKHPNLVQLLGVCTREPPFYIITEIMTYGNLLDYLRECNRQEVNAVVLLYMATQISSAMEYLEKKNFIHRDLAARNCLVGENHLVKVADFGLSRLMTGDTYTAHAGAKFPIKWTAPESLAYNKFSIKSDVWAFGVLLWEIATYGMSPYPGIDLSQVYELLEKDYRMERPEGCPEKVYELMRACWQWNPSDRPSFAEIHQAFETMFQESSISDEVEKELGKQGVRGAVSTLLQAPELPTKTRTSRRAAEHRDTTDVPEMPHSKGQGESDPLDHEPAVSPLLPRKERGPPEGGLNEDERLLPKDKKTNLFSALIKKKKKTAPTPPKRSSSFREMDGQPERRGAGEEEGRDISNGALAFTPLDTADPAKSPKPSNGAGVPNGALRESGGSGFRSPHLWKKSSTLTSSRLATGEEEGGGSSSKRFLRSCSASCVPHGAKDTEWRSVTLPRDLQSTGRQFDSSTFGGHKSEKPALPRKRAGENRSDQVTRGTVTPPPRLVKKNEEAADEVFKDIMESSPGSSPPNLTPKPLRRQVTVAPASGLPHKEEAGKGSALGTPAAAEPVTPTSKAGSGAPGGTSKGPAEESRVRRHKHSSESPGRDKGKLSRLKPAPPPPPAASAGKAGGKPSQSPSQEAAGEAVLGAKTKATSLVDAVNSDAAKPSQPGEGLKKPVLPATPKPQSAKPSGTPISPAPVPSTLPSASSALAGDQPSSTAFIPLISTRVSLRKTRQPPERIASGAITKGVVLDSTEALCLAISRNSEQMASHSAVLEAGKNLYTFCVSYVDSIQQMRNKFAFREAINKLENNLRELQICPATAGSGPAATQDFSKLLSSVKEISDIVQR
Assay [15] deals with Epidermal growth factor receptor (Homo sapiens), P00533 [L858R,T790M]. Description: Inhibition of human partial length EGFR L858R/T790M double mutant (R669 to V1011 residues) expressed in mammalian expression system at 1 uM by Kinomescan method relative to control.
For assay [16], the target named is Receptor tyrosine-protein kinase erbB-2 (Homo sapiens) (UniProt P04626). Description: Inhibition of wild-type human partial length ERBB2 (K646 to V1225 residues) expressed in mammalian expression system at 1 uM by Kinomescan method relative to control.
In assay [17] the test system is Mast/stem cell growth factor receptor Kit (Homo sapiens), P10721 [D816V]. Description: Inhibition of human partial length KIT D816V mutant (I571 to D952 residues) expressed in bacterial expression system at 1 uM by Kinomescan method relative to control.
The target of assay [18] is Dual specificity mitogen-activated protein kinase kinase 3 (Homo sapiens) (UniProt P46734). Description: Inhibition of wild-type human full length MEK3 (M1 to S318 residues) expressed in mammalian expression system at 1 uM by Kinomescan method relative to control.
The target of assay [19] is Macrophage-stimulating protein receptor (Homo sapiens) (UniProt Q04912). Description: Inhibition of wild-type human partial length MST1R (I1057 to L1363 residues) expressed in bacterial expression system at 1 uM by Kinomescan method relative to control.
Assay [20] concerns the target Serine/threonine-protein kinase NLK (Homo sapiens) (UniProt Q9UBE8). Description: Inhibition of wild-type human full length NLK (M13 to E527 residues) expressed in bacterial expression system at 1 uM by Kinomescan method relative to control.
Assay [21] addresses Phosphorylase b kinase gamma catalytic chain, skeletal muscle/heart isoform (Homo sapiens) (UniProt Q16816). Description: Inhibition of wild-type human full length PHKG1 (M1 to Y387 residues) expressed in bacterial expression system at 1 uM by Kinomescan method relative to control.
Assay [22] concerns the target Phosphatidylinositol 4,5-bisphosphate 3-kinase catalytic subunit beta isoform (Homo sapiens) (UniProt P42338). Description: Inhibition of wild-type human partial length PIK3CB (P118 to S1070 residues) expressed in mammalian expression system at 1 uM by Kinomescan method relative to control.
Assay [23] deals with Phosphatidylinositol 4-phosphate 5-kinase type-1 gamma (Homo sapiens) (UniProt O60331). Description: Inhibition of wild-type human partial length PIP5K1C (M1 to T668 residues) expressed in mammalian expression system at 1 uM by Kinomescan method relative to control.
The target of assay [24] is Ribosomal protein S6 kinase alpha-1 (Homo sapiens) (UniProt Q15418). Description: Inhibition of wild-type human partial length C-terminal RSK1 kinase domain 2 (P360 to L681 residues) expressed in bacterial expression system at 1 uM by Kinomescan method relative to control.
Assay [25] concerns the target TRAF2 and NCK-interacting protein kinase (Homo sapiens) (UniProt Q9UKE5). Description: Inhibition of wild-type human partial length TNIK (D4 to K311 residues) expressed in bacterial expression system at 1 uM by Kinomescan method relative to control.
Assay [26] concerns the target Serine/threonine-protein kinase WNK4 (Homo sapiens) (UniProt Q96J92). Description: Inhibition of wild-type human partial length WNK4 (A31 to D461 residues) expressed in mammalian expression system at 1 uM by Kinomescan method relative to control.

Sequence of Phosphatidylinositol 3-kinase C2 domain-containing subunit gamma (Homo sapiens) (O75747 whole entry, the tested form may be a part): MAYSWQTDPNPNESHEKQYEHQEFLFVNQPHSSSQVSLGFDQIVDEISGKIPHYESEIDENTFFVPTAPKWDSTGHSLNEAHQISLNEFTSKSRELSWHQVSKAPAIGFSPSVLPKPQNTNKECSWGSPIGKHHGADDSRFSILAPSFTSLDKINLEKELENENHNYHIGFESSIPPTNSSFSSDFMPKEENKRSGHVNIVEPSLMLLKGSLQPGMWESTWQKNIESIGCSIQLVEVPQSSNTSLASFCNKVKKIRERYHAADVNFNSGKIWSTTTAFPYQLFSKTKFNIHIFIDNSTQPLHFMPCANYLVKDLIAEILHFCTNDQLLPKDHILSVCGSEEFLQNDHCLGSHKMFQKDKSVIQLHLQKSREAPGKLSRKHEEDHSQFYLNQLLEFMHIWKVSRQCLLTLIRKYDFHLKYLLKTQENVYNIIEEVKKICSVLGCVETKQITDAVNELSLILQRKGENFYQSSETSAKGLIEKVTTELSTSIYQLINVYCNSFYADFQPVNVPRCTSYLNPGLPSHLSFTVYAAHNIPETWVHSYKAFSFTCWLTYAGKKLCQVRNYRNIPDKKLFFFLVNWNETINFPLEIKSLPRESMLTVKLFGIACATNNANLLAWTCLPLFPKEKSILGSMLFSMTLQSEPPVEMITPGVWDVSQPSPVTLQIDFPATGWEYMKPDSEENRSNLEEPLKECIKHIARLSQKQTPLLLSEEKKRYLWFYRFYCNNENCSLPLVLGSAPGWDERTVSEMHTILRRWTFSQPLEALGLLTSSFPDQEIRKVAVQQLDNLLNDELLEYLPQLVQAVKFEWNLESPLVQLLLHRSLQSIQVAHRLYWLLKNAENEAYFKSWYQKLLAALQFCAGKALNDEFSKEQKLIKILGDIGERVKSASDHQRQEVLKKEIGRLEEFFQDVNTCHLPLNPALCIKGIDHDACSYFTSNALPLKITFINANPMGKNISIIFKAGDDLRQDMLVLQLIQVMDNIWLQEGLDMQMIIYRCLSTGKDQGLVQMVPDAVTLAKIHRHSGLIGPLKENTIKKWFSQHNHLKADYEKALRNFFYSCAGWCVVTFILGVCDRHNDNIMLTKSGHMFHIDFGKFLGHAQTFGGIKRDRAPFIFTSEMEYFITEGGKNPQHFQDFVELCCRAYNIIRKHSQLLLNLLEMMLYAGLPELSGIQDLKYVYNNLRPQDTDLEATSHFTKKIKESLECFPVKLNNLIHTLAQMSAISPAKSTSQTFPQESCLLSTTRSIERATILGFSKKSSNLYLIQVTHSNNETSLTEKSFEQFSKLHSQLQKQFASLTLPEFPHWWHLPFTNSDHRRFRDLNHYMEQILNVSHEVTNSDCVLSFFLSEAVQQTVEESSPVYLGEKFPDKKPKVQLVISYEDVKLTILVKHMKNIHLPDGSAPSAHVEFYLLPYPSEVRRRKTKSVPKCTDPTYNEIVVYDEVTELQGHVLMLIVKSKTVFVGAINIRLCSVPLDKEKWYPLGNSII
Sequence of Epithelial discoidin domain-containing receptor 1 (Homo sapiens) (Q08345 whole entry, the tested form may be a part): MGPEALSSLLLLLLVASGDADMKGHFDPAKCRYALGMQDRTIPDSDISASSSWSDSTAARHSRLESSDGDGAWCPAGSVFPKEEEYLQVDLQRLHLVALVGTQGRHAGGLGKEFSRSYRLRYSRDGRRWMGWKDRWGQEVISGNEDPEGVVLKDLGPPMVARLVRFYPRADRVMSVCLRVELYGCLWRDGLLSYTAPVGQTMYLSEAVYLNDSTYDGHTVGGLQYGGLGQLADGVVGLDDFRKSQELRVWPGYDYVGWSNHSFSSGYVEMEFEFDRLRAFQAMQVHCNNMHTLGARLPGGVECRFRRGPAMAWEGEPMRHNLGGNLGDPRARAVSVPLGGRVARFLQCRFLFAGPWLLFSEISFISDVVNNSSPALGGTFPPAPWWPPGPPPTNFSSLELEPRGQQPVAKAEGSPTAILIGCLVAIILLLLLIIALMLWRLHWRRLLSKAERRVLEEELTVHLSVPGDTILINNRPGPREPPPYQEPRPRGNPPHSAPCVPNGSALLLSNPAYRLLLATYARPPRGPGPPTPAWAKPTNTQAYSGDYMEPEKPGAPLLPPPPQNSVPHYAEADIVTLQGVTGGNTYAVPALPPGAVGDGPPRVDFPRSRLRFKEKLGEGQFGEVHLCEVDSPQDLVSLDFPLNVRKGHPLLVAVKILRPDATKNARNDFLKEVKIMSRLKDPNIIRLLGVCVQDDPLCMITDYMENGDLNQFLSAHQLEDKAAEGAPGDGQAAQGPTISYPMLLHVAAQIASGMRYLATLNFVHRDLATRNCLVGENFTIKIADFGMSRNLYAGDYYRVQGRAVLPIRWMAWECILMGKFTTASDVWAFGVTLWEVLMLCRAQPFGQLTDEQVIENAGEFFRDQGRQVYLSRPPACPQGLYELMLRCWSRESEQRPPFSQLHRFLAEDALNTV
Sequence of Phosphorylase b kinase gamma catalytic chain, skeletal muscle/heart isoform (Homo sapiens) (Q16816 whole entry, looked up, the tested form may be a part, canonical isoform): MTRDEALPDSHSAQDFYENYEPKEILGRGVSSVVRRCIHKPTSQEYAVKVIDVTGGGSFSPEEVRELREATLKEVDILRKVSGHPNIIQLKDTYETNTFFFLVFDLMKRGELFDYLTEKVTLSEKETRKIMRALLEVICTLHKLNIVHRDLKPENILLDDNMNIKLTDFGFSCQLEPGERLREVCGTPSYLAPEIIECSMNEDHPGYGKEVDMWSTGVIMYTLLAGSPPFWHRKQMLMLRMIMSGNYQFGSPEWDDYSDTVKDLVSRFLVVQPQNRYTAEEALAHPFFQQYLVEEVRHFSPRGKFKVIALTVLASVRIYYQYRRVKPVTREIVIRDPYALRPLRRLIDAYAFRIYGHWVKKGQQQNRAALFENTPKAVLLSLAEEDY

With `O=C(Nc1cccc([C@H]2CCCN(c3ncnc4[nH]ccc34)C2)c1)Nc1ccccc1N1CCCC1`, the inhibition in assay [1] amounted to 89%; in assay [2] it was 3.5%; in [3] it was 62%; in assay [4], 85%; in [5], 100%; in assay [6] it was 81%. In addition, the inhibition in [7] was found to be 18%; in assay [8], 100%; in assay [9], 54%; in [10], 89%; in [11], 29%; in assay [12] it was 0%. The same compound yielded an inhibition in [13] of 0.65%.
Take `O=C(Nc1cccc([C@@H]2CN(c3ncnc4[nH]ccc34)CCN2CCO)c1)Nc1c(F)cccc1N1CCCC1`: the inhibition came to 100% in assay [14]; 97% in assay [15]; 83% in [16]; 2% in assay [17]; 77% in [18]; 100% in [19]. The inhibition came to 100% in assay [20]; 98% in assay [21]; 100% in [22]; 70% in [23]; 88% in assay [24]; 81% in assay [25]. In assay [26], this compound yielded an inhibition of 96%.

The values are drawn from ChEMBL document CHEMBL4387741, “Optimization of novel reversible Bruton's tyrosine kinase inhibitors identified using Tethering-fragment-based screens” (Bioorg Med Chem, 2019).
